In patent publication US12077503B2, “Substituted cyclic amides and their use as herbicides” (FMC CORPORATION, priority 2015, dated 2024):

Key:
Format in all cases: in vivo
[1] = system: wheat (Triticum aestivum); experiment: Test A postemergence; conditions: Triticum aestivum, post-emergence, 240 h, 125 g ai/ha, Postemergence; visual injury after approximately 10 d; 0 to 100 scale where 0 is no effect and 100 is complete control; read-out: Plant response rating, Wheat
Outline: (§1)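 Seeded soil received test chemicals as a preemergence directed spray, and seedlings at one to two leaves, 2–10 cm tall, received them postemergence, in a non-phytotoxic, surfactant-containing solvent mixture. Pots were held in a greenhouse for approximately 10 d, then rated for injury from 0, no effect, to 100, complete control.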

[2] = system: blackgrass (Alopecurus myosuroides); experiment: Test A postemergence; conditions: Alopecurus myosuroides, post-emergence, 240 h, 125 g ai/ha, Postemergence; visual injury after approximately 10 d; 0 to 100 scale where 0 is no effect and 100 is complete control; read-out: Plant response rating, Blackgrass
Outline: as §1

[3] = system: Galium (catchweed bedstraw, Galium aparine); experiment: Test A postemergence; conditions: Galium, post-emergence, 240 h, 125 g ai/ha, Postemergence; visual injury after approximately 10 d; 0 to 100 scale where 0 is no effect and 100 is complete control; read-out: Plant response rating, Galium
Outline: as §1

[4] = system: giant foxtail (Setaria faberii); experiment: Test A postemergence; conditions: Setaria faberi, post-emergence, 240 h, 125 g ai/ha, Postemergence; visual injury after approximately 10 d; 0 to 100 scale where 0 is no effect and 100 is complete control; read-out: Plant response rating, Foxtail, Giant
Outline: as §1

[5] = system: ragweed (common ragweed, Ambrosia elatior); experiment: Test A postemergence; conditions: Ambrosia artemisiifolia, post-emergence, 240 h, 125 g ai/ha, Postemergence; visual injury after approximately 10 d; 0 to 100 scale where 0 is no effect and 100 is complete control; read-out: Plant response rating, Ragweed
Outline: as §1

[6] = system: pigweed (Amaranthus retroflexus); experiment: Test A postemergence; conditions: Amaranthus retroflexus, post-emergence, 240 h, 125 g ai/ha, Postemergence; visual injury after approximately 10 d; 0 to 100 scale where 0 is no effect and 100 is complete control; read-out: Plant response rating, Pigweed
Outline: as §1

[7] = system: ryegrass, Italian (Italian ryegrass, Lolium multiflorum); experiment: Test A postemergence; conditions: Lolium multiflorum, post-emergence, 240 h, 125 g ai/ha, Postemergence; visual injury after approximately 10 d; 0 to 100 scale where 0 is no effect and 100 is complete control; read-out: Plant response rating, Ryegrass, Italian
Outline: as §1

Kochia (Kochia scoparia) [8] = experiment: Test A postemergence; conditions: Bassia scoparia, post-emergence, 240 h, 125 g ai/ha, Postemergence; visual injury after approximately 10 d; 0 to 100 scale where 0 is no effect and 100 is complete control; read-out: Plant response rating, Kochia
Outline: as §1

[9] = system: barnyardgrass (Echinochloa crus-galli); experiment: Test A postemergence; conditions: Echinochloa crus-galli, post-emergence, 240 h, 125 g ai/ha, Postemergence; visual injury after approximately 10 d; 0 to 100 scale where 0 is no effect and 100 is complete control; read-out: Plant response rating, Barnyardgrass
Outline: as §1

corn (Zea mays) = experiment: Test A postemergence; conditions: Zea mays, post-emergence, 240 h, 125 g ai/ha, Postemergence; visual injury after approximately 10 d; 0 to 100 scale where 0 is no effect and 100 is complete control
Outline: as §1

rice (Oryra sativa) = experiment: Test B flooded paddy test; conditions: Oryza sativa, Flood, 250 g ai/ha; scale of 0 to 100 where 0 is no effect and 100 is complete control; read-out: Rice plant response rating
Outline: (§2)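 2-leaf plants; pots flooded 3 cm over soil; cpd added to paddy water; depth held; greenhouse 13–15 d; visual rating vs controls, 0 = no effect, 100 = complete control.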

[10] = system: sedge, umbrella (small-flower umbrella sedge, Cyperus difformis); experiment: Test B flooded paddy test; conditions: Cyperus difformis, Flood, 250 g ai/ha; scale of 0 to 100 where 0 is no effect and 100 is complete control; read-out: Sedge, Umbrella plant response rating
Outline: as §2

[11] = system: ducksalad (Heteranthera limosa); experiment: Test B flooded paddy test; conditions: Heteranthera limosa, Flood, 250 g ai/ha; scale of 0 to 100 where 0 is no effect and 100 is complete control; read-out: Ducksalad plant response rating
Outline: as §2

[12] = system: barnyardgrass (Echinochloa crus-galli); experiment: Test B flooded paddy test; conditions: Echinochloa crus-galli, Flood, 250 g ai/ha; scale of 0 to 100 where 0 is no effect and 100 is complete control; read-out: Barnyardgrass plant response rating
Outline: as §2

[13] = system: giant foxtail (Setaria faberii); experiment: Test A preemergence; conditions: Setaria faberi, pre-emergence, 240 h
Outline: as §1

[14] = system: ragweed (common ragweed, Ambrosia elatior); experiment: Test A preemergence; conditions: Ambrosia artemisiifolia, pre-emergence, 240 h
Outline: as §1

[15] = system: pigweed (Amaranthus retroflexus); experiment: Test A preemergence; conditions: Amaranthus retroflexus, pre-emergence, 240 h
[16] = system: ryegrass, Italian (Italian ryegrass, Lolium multiflorum); experiment: Test A preemergence; conditions: Lolium multiflorum, pre-emergence, 240 h
Outline: as §1

Kochia (Kochia scoparia) [17] = experiment: Test A preemergence; conditions: Bassia scoparia, pre-emergence, 240 h
Outline: as §1

[18] = system: barnyardgrass (Echinochloa crus-galli); experiment: Test A preemergence; conditions: Echinochloa crus-galli, pre-emergence, 240 h
Outline: as §1

CC(C)COc1cccc([C@H]2CNC(=O)[C@@H]2C(=O)Nc2ccccc2F)c1 [Compound 964]
40%: pest or weed control at 125 g/ha [3]
60%: pest or weed control at 125 g/ha [4] | pest or weed control at 125 g/ha [9]
90%: pest or weed control at 125 g/ha ([13]; 125 g ai/ha, Preemergence, visual injury rating after approximately 10 d, read-out: Foxtail, Giant plant response rating (0 to 100 scale, 0 is no effect, 100 is complete control)) | pest or weed control at 500 g/ha ([13]; 500 g ai/ha, preemergence, visual injury rating about 10 d after treatment, 0 to 100 scale (0 no effect, 100 complete control), read-out: Foxtail, Giant plant response rating) | pest or weed control at 125 g/ha ([18]; 125 g ai/ha, Preemergence, visual injury rating after approximately 10 d, read-out: Barnyardgrass plant response rating (0 to 100 scale, 0 is no effect, 100 is complete control)) | pest or weed control at 500 g/ha ([18]; 500 g ai/ha, preemergence, visual injury rating about 10 d after treatment, 0 to 100 scale (0 no effect, 100 complete control), read-out: Barnyardgrass plant response rating)
0%: plant injury at 125 g/ha [1] | pest or weed control at 125 g/ha [2] | pest or weed control at 125 g/ha [5] | pest or weed control at 125 g/ha [6] | pest or weed control at 125 g/ha [7] | pest or weed control at 125 g/ha (Kochia (Kochia scoparia) [8]) | Corn plant response rating (crop injury, 0 = no effect, 100 = complete kill) at 125 g/ha (corn (Zea mays)) | pest or weed control at 250 g/ha [10] | pest or weed control at 250 g/ha [12] | pest or weed control at 125 g/ha ([14]; 125 g ai/ha, Preemergence, visual injury rating after approximately 10 d, read-out: Ragweed plant response rating (0 to 100 scale, 0 is no effect, 100 is complete control)) | pest or weed control at 500 g/ha ([14]; 500 g ai/ha, preemergence, visual injury rating about 10 d after treatment, 0 to 100 scale (0 no effect, 100 complete control), read-out: Ragweed plant response rating) | pest or weed control at 125 g/ha ([15]; 125 g ai/ha, Preemergence, visual injury rating after approximately 10 d, read-out: Pigweed plant response rating (0 to 100 scale, 0 is no effect, 100 is complete control)) | pest or weed control at 500 g/ha ([15]; 500 g ai/ha, preemergence, visual injury rating about 10 d after treatment, 0 to 100 scale (0 no effect, 100 complete control), read-out: Pigweed plant response rating) | pest or weed control at 125 g/ha ([16]; 125 g ai/ha, Preemergence, visual injury rating after approximately 10 d, read-out: Ryegrass, Italian plant response rating (0 to 100 scale, 0 is no effect, 100 is complete control)) | pest or weed control at 125 g/ha (Kochia (Kochia scoparia) [17]; 125 g ai/ha, Preemergence, visual injury rating after approximately 10 d, read-out: Kochia plant response rating (0 to 100 scale, 0 is no effect, 100 is complete control))
20%: pest or weed control at 500 g/ha (Kochia (Kochia scoparia) [17]; 500 g ai/ha, preemergence, visual injury rating about 10 d after treatment, 0 to 100 scale (0 no effect, 100 complete control), read-out: Kochia plant response rating)
75%: pest or weed control at 250 g/ha [11]
30%: pest or weed control at 500 g/ha ([16]; 500 g ai/ha, preemergence, visual injury rating about 10 d after treatment, 0 to 100 scale (0 no effect, 100 complete control), read-out: Ryegrass, Italian plant response rating)
15%: pest or weed control at 250 g/ha (rice (Oryra sativa))
